Experimental data as given in paper PMC8070033, “Bimetallic Iron–Palladium Catalyst System as a Lewis-Acid for the Synthesis of Novel Pharmacophores Based Indole Scaffold as Anticancer Agents” (Molecules, 2021).

Legend:
[1] = tested on: Human fibroblast BJ; test: Cytotoxicity MTT assay, BJ human fibroblast cells; type: cell-based; settings: 48 hrs, ± SD from three independent experiments, NA: did not show activity at 30 µM
Description: (§1) Cytotoxicity against BJ Human fibroblast cells, and anti-cancer activity against PC3, HeLa and MCF-7 cancer cell lines were evaluated by following the procedure as described in the literature (Supplementary Materials).
The Biological Activity Assays Protocols […]
(§2) of positive control – mean of O.D of negative control)*100). […]
(§3) Standard drug used in the MTT assay was doxorubicin. […]
B. Cytotoxicity assay Protocol (BJ Human fibroblast cells) […]
standard MTT (3-[4, 5-dimethylthiazole-2-yl]-2, 5-diphenyl-tetrazolium bromide) colorimetric assay (Price & J. McMillan1, 1990). For this purpose, BJ Human fibroblast cells were cultured in Dulbecco’s Modified Eagle Medium, supplemented with 10% of fetal bovine serum (FBS), 100 IU/ml of penicillin and 100 µg/ml of streptomycin and 2 mM L‐glutamine in 75 cm2 flasks, and kept in 5% CO2 incubator at 37 °C (Mannerström, Toimela, Sarkanen & Heinonen, 2017).
Exponentially growing cells were harvested, counted with haemocytometer and diluted with a particular medium. Cell culture with the concentration of 6x10^4cells/ml was prepared and introduced (100 µL/well) into 96-well plates. After overnight incubation, medium was removed and 200 µL of fresh medium was added with different concentrations of compounds (1 -30µM). After 48 hrs, 200 µL MTT (0.5 mg/ml) was added to each well and incubated further for 3 hrs.
Subsequently, 100µL of DMSO was added to each well. The extent of MTT reduction to formazan within cells was calculated by measuring the absorbance at 550 nm, using a micro plate reader (Spectra Max plus, Molecular Devices, CA, USA). The cytotoxicity was recorded as concentra tion causing 50% growth inhibition (IC50) for BJ cells. The percent inhibition was calculated by using the following […]
Following concentrations were used to calculate (in case) of IC50: […]

[2] = tested on: PC3 cells (Prostate Cancer); test: PC3 cells (Prostate Cancer) MTT assay; type: cell-based; settings: for IC50: MTT assay, 48 hrs, ± SD from three independent experiments, NA: did not show anticancer activity at 30 µM; for anticancer activity against PC3 prostate cancer cell line (in words): in comparison to doxorubicin
Description: as §1
The Biological Activity Assays Protocols
A. PC3 cells (Prostate Cancer) assay […]
For this purpose, PC3 cells (Prostate Cancer) were cultured in Dulbecco’s Modified Eagle Medium, supplemented with 5% of fetal bovine serum (FBS), 100 IU/ml of penicillin and 100 µg/ml of streptomycin in 75 cm2 flasks, and kept in 5% CO2 incubator at 37 °C. Exponentially growing cells were harvested, counted with haemocytometer and diluted with a particular medium. Cell culture with the concentration of 1x10^5 cells/ml was prepared and introduced (100 µL/well) into 96-well plates. After overnight incubation, medium was removed and 200 µL of fresh medium was added with different concentrations of compounds (1-30µM). After 48 hrs, 200 µL MTT (0.5 mg/ml) was added to each well and incubated further for 4 hrs. Subsequently, 100µL of DMSO was added to each well. The extent of MTT reduction to formazan within cells was calculated by measuring the absorbance at 570 nm, using a micro plate reader (Spectra Max plus, Molecular Devices, CA, USA). The cytotoxicity was recorded as concentration causing 50% growth inhibition (IC50) for PC3 cells. The percent inhibition was calculated by using the following formula: […]
(§4) of positive control – mean of O.D of negative control)*100).
(§5) The results (% inhibition) were processed by using Soft- Max Pro software (Molecular Device, USA).
Standard drug used in the MTT assay was doxorubicin.
(§6) 1. Mosmann T. Rapid colorimetric assay for cellular growth and survival: application to proliferation and cytotoxicity assays. J Immunol Meth 1983, 65, 55–63. […]

[3] = tested on: HeLa cells (Cervical Cancer); test: HeLa cells (Cervical Cancer) MTT assay; type: cell-based; settings: ± SD from three independent experiments, NA: did not show anticancer activity at 30 µM
Description: (§7) Cytotoxicity against BJ Human fibroblast cells, and anti-cancer activity against PC3, HeLa and MCF-7 cancer cell lines were evaluated by following the procedure as described in the literature (Supplementary Materials). […]
as §4, §5
(§8) Following concentrations were used to calculate (in case) of IC50:
as §3
C. HeLa cells (Cervical Cancer) assay
Cytotoxic activity of compounds was evaluated in 96-well flat-bottomed micro plates by using the standard MTT (3-[4, 5-dimethylthiazole-2-yl]-2, 5-diphenyl-tetrazolium bromide) colorimetric assay40.
For this purpose, HeLa cells (Cervical Cancer) were cultured in Minimum Essential Medium Eagle, supplemented with 5% of fetal bovine serum (FBS) , 100 IU/ml of penicillin and 100 µg/ml of streptomycin in 75 cm2 flasks, and kept in 5% CO2 incubator at 37 °C. Exponentially growing cells were harvested, counted with haemocytometer and diluted with a particular medium. Cell culture with the concentration of 6x10^4 cells/ml was prepared and introduced (100 µL/well) into 96 -well plates. After overnight incubation, medium was removed and 200 µL of fresh medium was added with different concentrations of compounds (1-30µM). After 48 hrs, 200 µL MTT (0.5 mg/ml) was added to each well and incubated further for 4 hrs. Subsequently, 100µL of DMSO was added to each well. The extent of MTT reduction to formazan within cells was calculated by measuring the absorbance at 570 nm, using a micro plate reader (Spectra Max plus, Molecular Devices, CA, USA). The cytotoxicity was recorded as concentration causing 50% growth inhibition (IC 50) for HeLa. The percent inhibition was calculated by using the following formula: […]
The results (% inhibition) were processed by using Soft - Max Pro software (Molecular Device, USA).
as §6

[4] = tested on: MCF-7 breast cancer cell line; test: MCF-7 breast cancer cell line MTT assay; type: cell-based; settings: Homo sapiens, MCF7, 48 h, MTT assay, 48 hours; ± SD from three independent experiments; NA: did not show anticancer activity at 30 µM
Description: as §7, §2, §8, §3
D. MCF-7 breast cancer cell line assay.
MTT assay is a rapid and quantitative assay capable of measuring the surviving or proliferating cells.
It is based on the reduction of tetrazolium salt MTT (3-(4,5-dimethylthiazol-yl)-2,5-diphenyl tetrazolium bromide) by various dehydrogenase enzymes present in living cells. The tetrazolium ring present in MTT is cleaved in active mitochondria, which results in production of purple colored formazan crystals. These crystals are dissolved in DMSO and optical density of the color produced is taken by spectrophotometer (ELISA reader), with high efficiency and accuracy.
This assay was optimized and slightly modified according to our cell lines, i.e. MCF-7 breast cancer cell […]
1. MCF-7 cell line were cultured in Dulbecco’s modified Eagle medium (containing 10% fetal bovine serum) in 75 cc flasks, and kept in 5% CO 2 incubator at 37 °C.
2. Upon confluency, cells were harvested and plated in 96-well tissue culture treated flat bottom plates (seeding density 8,000 cells/well for MCF-7) in 100 µL medium.
3. Next day, compounds were added in triplicate at 50 µM concentration, and incubated for 48 hours. For natural extracts, the concentration was 50 µg/mL.
4. After 48 hrs incubation, the compounds were removed and 200 µL MTT at 0.5 mg/mL was added to each well and incubated at 37 °C for 3 hours.
5. Formazan crystals, formed by reduction of MTT were dissolved in 100 µL DMSO and absorbance was taken at 570 nm using micro-plate reader (Spectra Max plus, Molecular […]
6. The percent inhibition or decrease in viable cells was calculated by following formula:
% Inhibition = 100 - (mean of O.D. of test compound - mean of O.D. of negative control) / (mean of O.D. of positive control - mean of O.D. of negative control) x 100) […]
Twenty (20) mM stock concentration of compounds were diluted to working concentration of 50 µM, and then further serial dilutions were made in order to get less than 50% inhibition.
The IC50 was then calculated by using EZ-fit5 software.

O=C(CC(c1cc2ccccc2s1)c1c[nH]c2ccccc12)c1ccc(Br)cc1 (stereo not shown) [Compound 3h, 3-(Benzo[b]thiophen-2-yl)-1-(4-bromophenyl)-3-(1H-indol-3-yl)propan-1-one]
IC50 [1]: > 30 µM
IC50 ([2]; Homo sapiens, PC-3, 48 h): 29.7 ± 0.4 µM
melting point: 121 to 122 °C

O=C(CC(c1cc2ccccc2s1)c1c[nH]c2ccccc12)c1ccc(C(F)(F)F)cc1 (stereo not shown) [Compound 3q, 3-(Benzo[b]thiophen-2-yl)-3-(1H-indol-3-yl)-1-(4-(trifluoromethyl)phenyl)propan-1-one]
IC50 [1]: > 50 µM
IC50 ([2]; Homo sapiens, PC-3, 48 h): 18 ± 0.3 µM
IC50 ([3]; Homo sapiens, HeLa, 48 h): 18.8 ± 0.2 µM
melting point: 165 to 166 °C

O=C(CC(c1cc2ccccc2o1)c1c[nH]c2cc(F)ccc12)c1ccc(Cl)cc1 (stereo not shown) [Compound 3g, 3-(Benzofuran-2-yl)-1-(4-chlorophenyl)-3-(6-fluoro-1H-indol-3-yl)propan-1-one]
IC50 [1]: > 30 µM
IC50 ([2]; Homo sapiens, PC-3, 48 h): 22 ± 1.3 µM
IC50 [2]: 20 ± 1.3 µM
IC50 ([3]; Homo sapiens, HeLa, 48 h): 14.7 ± 1.1 µM
melting point: 112 to 113 °C

COc1cccc2c1C(=O)c1c(O)c3c(c(O)c1C2=O)C[C@@](O)(C(=O)CO)C[C@@H]3O[C@H]1C[C@H](N)[C@H](O)[C@H](C)O1 [Doxorubicin, doxorubicin, reference compound]
IC50 [2]: 1.9 ± 0.4 µM
IC50 ([2]; listed as doxorubicin): 0.9 ± 0.14 µM
IC50 ([3]; 48 hrs): 0.9 ± 0.14 µM
IC50 ([3]; 48 hrs, listed as doxorubicin): 1.9 ± 0.4 µM
IC50 [4]: 0.79 ± 0.05 µM

O=C(CC(c1cc2ccccc2o1)c1c[nH]c2ccc(Br)cc12)c1ccccc1[N+](=O)[O-] (stereo not shown) [Compound 3j, 3-(Benzofuran-2-yl)-3-(5-bromo-1H-indol-3-yl)-1-(2-nitrophenyl)propan-1-one]
IC50 ([2]; Homo sapiens, PC-3, 48 h): 16 ± 0.1 µM
IC50 ([3]; Homo sapiens, HeLa, 48 h): 17.3 ± 0.7 µM
melting point: 173 to 174 °C

COc1cccc(C(=O)CC(c2cc3ccccc3o2)c2c[nH]c3ccccc23)c1 (stereo not shown) [Compound 3l, 3-(Benzofuran-2-yl)-3-(1H-indol-3-yl)-1-(3-methoxyphenyl)propan-1-one]
IC50 [1]: > 30 µM
IC50 ([2]; Homo sapiens, PC-3, 48 h): 16.3 ± 1.6 µM
IC50 ([3]; Homo sapiens, HeLa, 48 h): 11.1 ± 0.6 µM
melting point: 162 to 163 °C

O=C(CC(c1cc2ccccc2s1)c1c[nH]c2ccccc12)c1ccc(Cl)cc1 (stereo not shown) [Compound 3o, 3-(Benzo[b]thiophen-2-yl)-1-(4-chlorophenyl)-3-(1H-indol-3-yl)propan-1-one]
IC50 [1]: > 50 µM
IC50 ([2]; Homo sapiens, PC-3, 48 h): 29.7 ± 0.1 µM
IC50 ([3]; Homo sapiens, HeLa, 48 h): 13.8 ± 0.3 µM
melting point: 150 to 151 °C

COc1ccccc1C(=O)CC(c1cc2ccccc2o1)c1c[nH]c2ccccc12 (stereo not shown) [Compound 3r, 3-(Benzofuran-2-yl)-3-(1H-indol-3-yl)-1-(2-methoxyphenyl)propan-1-one]
IC50 ([2]; Homo sapiens, PC-3, 48 h): 20.4 ± 0.4 µM
anticancer activity against PC3 prostate cancer cell line (in words) [2]: inactive
IC50 ([3]; Homo sapiens, HeLa, 48 h): 12.4 ± 0.2 µM
melting point: 67 to 68 °C

O=C(CC(c1cc2ccccc2o1)c1c[nH]c2ccccc12)c1ccccc1[N+](=O)[O-] (stereo not shown) [Compound 3k, 3-(Benzofuran-2-yl)-3-(1H-indol-3-yl)-1-(2-nitrophenyl)propan-1-one]
IC50 ([3]; Homo sapiens, HeLa, 48 h): 14.9 ± 0.6 µM
melting point: 154 to 155 °C

O=C(CC(c1cc2ccccc2o1)c1c[nH]c2ccccc12)c1ccc(Br)cc1 (stereo not shown) [Compound 3d, 3-(Benzofuran-2-yl)-1-(4-bromophenyl)-3-(1H-indol-3-yl)propan-1-one]
IC50 [1]: > 30 µM
IC50 ([2]; Homo sapiens, PC-3, 48 h): 26.3 ± 0.8 µM
IC50 ([3]; Homo sapiens, HeLa, 48 h): 12.6 ± 0.4 µM
melting point: 108 to 109 °C

O=C(CC(c1cc2ccccc2o1)c1c[nH]c2cc(F)ccc12)c1ccc(Br)cc1 (stereo not shown) [Compound 3e, 3-(Benzofuran-2-yl)-1-(4-bromophenyl)-3-(6-fluoro-1H-indol-3-yl)propan-1-one]
IC50 [1]: > 30 µM
IC50 ([2]; Homo sapiens, PC-3, 48 h): 7.8 ± 0.4 µM
IC50 ([3]; Homo sapiens, HeLa, 48 h): 13.6 ± 0.4 µM
melting point: 123 to 124 °C

O=C(CC(c1cc2ccccc2o1)c1c[nH]c2cc(F)ccc12)c1ccccc1[N+](=O)[O-] (stereo not shown) [Compound 3i, 3-(Benzofuran-2-yl)-3-(6-fluoro-1H-indol-3-yl)-1-(2-nitrophenyl)propan-1-one]
anticancer activity against PC3 prostate cancer cell line (in words) [2]: complete loss of anticancer activity
IC50 ([3]; Homo sapiens, HeLa, 48 h): 15.2 ± 0.6 µM
melting point: 139 to 140 °C

O=C(CC(c1cc2ccccc2s1)c1c[nH]c2ccccc12)c1ccccc1 (stereo not shown) [Compound 3n, 3-(Benzo[b]thiophen-2-yl)-3-(1H-indol-3-yl)-1-phenylpropan-1-one]
IC50 [1]: > 50 µM
IC50 ([2]; Homo sapiens, PC-3, 48 h): 20.4 ± 0.4 µM
IC50 ([3]; Homo sapiens, HeLa, 48 h): 12.4 ± 0.2 µM
melting point: 159 to 160 °C

O=C(CC(c1cc2ccccc2s1)c1c[nH]c2ccccc12)c1ccc(F)cc1 (stereo not shown) [Compound 3p, 3-(Benzo[b]thiophen-2-yl)-1-(4-fluorophenyl)-3-(1H-indol-3-yl)propan-1-one]
IC50 [1]: > 50 µM
IC50 ([2]; Homo sapiens, PC-3, 48 h): 27.6 ± 0.1 µM
IC50 ([3]; Homo sapiens, HeLa, 48 h): 12.7 ± 0.1 µM
